We go through 23 compounds from US12396961B2, “Compounds and compositions for intracellular delivery of agents” (ModernaTX, Inc., priority 2015, dated 2025).

This data set in a line: Particle size and polydispersity index (Zetasizer Nano ZS). The format is physicochemical. The source says:
Nanoparticle compositions may be characterized by a variety of methods. For example, microscopy (e.g., transmission electron microscopy or scanning electron microscopy) may be used to examine the morphology and size distribution of a nanoparticle composition. Dynamic light scattering or potentiometry (e.g., potentiometric titrations) may be used to measure zeta potentials. Dynamic light scattering may also be utilized to determine particle sizes. Instruments such as the Zetasizer Nano ZS (Malvern Instruments Ltd, Malvern, Worcestershire, UK) may also be used to measure multiple characteristics of a nanoparticle composition, such as particle size, polydispersity index, and zeta potential.
A Zetasizer Nano ZS (Malvern Instruments Ltd, Malvern, Worcestershire, UK) can be used to determine the particle size, the polydispersity index (PDI) and the zeta potential of the nanoparticle compositions in 1×PBS in determining particle size and 15 mM PBS in determining zeta potential.

[1] abbreviates: Table 1, DOPE 40:20:38.5:1.5, Luc mRNA.
Setting [2] is: Table 1, marked *: lipid:DSPC:Chol:PEG-DMG 50:10:38.5:1.5.

As for `CCCCCCCCCCCCN(CCO)CCN(CCCCCCCC(=O)OCCCCCCCCC)CCCCCCCC(=O)OCCCCCCCCC` [Compound 20-10, Dinonyl 8,8′-((2-(dodecyl(2-hydroxyethyl)amino)ethyl)azanediyl)dioctanoate], the PDI (Table 20-1) came to 0.130.

`CCCCCCCC/C=C\CCCCCCCCN(CCCCCCCC/C=C\CCCCCCCC)CCN1CCN(CCN(CCCCCCCCCCCC)CCN(CCCCCCCCCCCC)CCCCCCCCCCCC)CC1` [Compound 28, N^1-(2-(4-(2-(Di((Z)-octadec-9-en-1-yl)amino)ethyl)piperazin-1-yl)ethyl)-N^1,N^2,N^2-tridodecylethane-1,2-diamine]: the PDI under setting [1] is listed as 0.099.

`CCCCCCCCCCCCN(CCCCCCCCCCCC)CCN(CCCCCCCCCCCC)CCN1CCN(C(=O)CN(CCCCCCCCCCCC)CCCCCCCCCCCC)CC1` [Compound 3, 2-(Didodecylamino)-1-(4-(2-((2-(didodecylamino)ethyl)(dodecyl)amino)ethyl)piperazin-1-yl)ethan-1-one] gave a PDI under setting [1] of 0.044.

The compound `CCCCC/C=C\CCCCCN(CCO)CCN(CCCCCCCCCCCC)CCCCCCCCCCCC` [Compound 20-23, (Z)-2-((2-(Didodecylamino)ethyl)(dodec-6-en-1-yl)amino)ethan-1-ol] registered a PDI (Table 20-1) of 0.080.

Compound `CCCCCCCCCCCCN(CCCCCCCCCCCC)CCN(CCO)CCCCCCCC(=O)OC(CCCCCCCC)CCCCCCCC` [Compound 20-9, Heptadecan-9-yl 8-((2-(didodecylamino)ethyl)(2-hydroxyethyl)amino)octanoate] displayed a PDI (Table 20-1) of 0.130.

Under “formulated with hEPO mRNA”, `CCCCCCCCCCCCN(CCCCCCCCCCCC)CCN(CCCCCCCCCCCC)CCN1CCN(CCN(CCCCCCCC)CCCCCCCC)CC1` [Compound 22, N^1-(2-(4-(2-(Dioctylamino)ethyl)piperazin-1-yl)ethyl)-N^1,N^2,N^2-tridodecylethane-1,2-diamine] had a PDI of 0.130.

Under setting [1], `CCCCCCCCCCCCN(CCCCCCCCCCCC)CCN1CCN(CCN(CCCCCCCCC)CCN(CCCCCCCCC)CCCCCCCCC)CC1` [Compound 19, N^1-(2-(4-(2-(Didodecylamino)ethyl)piperazin-1-yl)ethyl)-N^1,N^2,N^2-trinonylethane-1,2-diamine] gave a PDI of 0.100.

With `CCCCC/C=C\C/C=C\CCCCCCCCN(CCCCCCCC/C=C\C/C=C\CCCCC)CCN(CCCCCCCC/C=C\C/C=C\CCCCC)CCN1CCNCC1` [Compound 41, N^1,N^1,N^2-Tri((9Z,12Z)-octadeca-9,12-dien-1-yl)-N^2-(2-(piperazin-1-yl)ethyl)ethane-1,2-diamine], the “Size (nm)” value under setting [2] came to 69.0 nm.

Turning to `CCCCCCCCCN(CCCCCCCCC)CCN(CCO)CCCCCC(=O)OCCCCC` [Compound 20-6, Pentyl 6-((2-(dinonylamino)ethyl)(2-hydroxyethyl)amino)hexanoate], the PDI (Table 20-1) was found to be 0.220.

Regarding `CCCCCCCCCCCCN(CCCCCCCCCCCC)CCN(CCCCCCCCCCCC)CCN1CCN(CCN(CCCCCCCCCCCC)CCCCCCCCCCCC(=O)OC)CC1` [Compound 15, Methyl 12-((2-(4-(2-((2-(didodecylamino)ethyl)(dodecyl)amino)ethyl)piperazin-1-yl)ethyl)(dodecyl)amino)dodecanoate], the PDI (formulated with hEPO mRNA) worked out at 0.120.

Turning to `CCCCCCCCCN(CCCCCCCCC)CCN(CCCCCCCCC)CCN1CCN(CCN(CCCCCCCCC)CCCCCCCCC)CC1` [Compound 18, N^1-(2-(4-(2-(Dinonylamino)ethyl)piperazin-1-yl)ethyl)-N^1,N^2,N^2-trinonylethane-1,2-diamine], the PDI under setting [1] came to 0.120.

On to `CCCCCCCCCCCCCCN(CCCCCCCCCCCCCC)CCN(CCCCCCCCCCCCCC)CCN1CCN(CCN(CCCCCCCCCCCCCC)CCCCCCCCCCCCCC)CC1` [Compound 32, N^1-(2-(4-(2-(Ditetradecylamino)ethyl)piperazin-1-yl)ethyl)-N^1,N^2,N^2 tritetradecylethane-1,2-diamine], for which the PDI under setting [1] is recorded as 0.160.

For the compound `CCCCC/C=C\C/C=C\CCCCCCCCN(CCCCCCCC/C=C\C/C=C\CCCCC)CCN(CCO)CCCCCCCCCCCC` [Compound 20-13, 2-((2-(Di((9Z,12Z)-octadeca-9,12-dien-1-yl)amino)ethyl)(dodecyl)amino)ethan-1-ol], the PDI (Table 20-1) amounted to 0.057.

`CCCCC/C=C\C/C=C\CCCCCCCCN(CCCCCCCC/C=C\C/C=C\CCCCC)CCN1CCN(CCN(CCCCCCCCCCCC)CCN(CCCCCCCCCCCC)CCCCCCCCCCCC)CC1` [Compound 29, N^1-(2-(4-(2-(Di((9Z,12Z)-octadeca-9,12-dien-1-yl)amino)ethyl)piperazin-1-yl)ethyl)-N^1,N^2,N^2-tridodecylethane-1,2-diamine]: the PDI under setting [1] is recorded as 0.060.

Where the note is “Table 20-1”, `CCCCCCCCCCCCCCN(CCO)CCN(CCCCCCCCCCCC)CCCCCCCCCCCC` [Compound 20-24, 2-((2-(Didodecylamino)ethyl)(tetradecyl)amino)ethan-1-ol] gave a PDI of 0.038.

`CCCCCCCCCCCCN(CCCCCCCCCCCC)CCN(CCO)CCCCCC(=O)OCCCCC` [Compound 20-3, Pentyl 6-((2-(didodecylamino)ethyl)(2-hydroxyethyl)amino)hexanoate] yielded a PDI (Table 20-1) of 0.110.

Regarding `CCCCCCCC/C=C\CCCCCCCCN(CCCCCCCC/C=C\CCCCCCCC)CCN(CCCCCCCC/C=C\CCCCCCCC)CCN1CCNCC1` [Compound 40, N^1,N^1,N^2-Tri((Z)-octadec-9-en-1-yl)-N^2-(2-(piperazin-1-yl)ethyl)ethane-1,2-diamine], the PDI under setting [2] is reported as 0.210.

Where the note is “Table 20-1”, `CCCCCCCCCCCCN(CCCCCCCCCCCC)CCN(CCO)CCCCCCCCC` [Compound 20-17, 2-((2-(didodecylamino)ethyl)(nonyl)amino)ethan-1-ol] displayed a PDI of 0.092.

With `CCCCC/C=C\C/C=C\CCCCCCCCN(CCCCCCCC/C=C\C/C=C\CCCCC)CCN(CCCCCCCC/C=C\C/C=C\CCCCC)CCN1CCN(CCN(CCCCCCCCCCCC)CCCCCCCCCCCC)CC1` [Compound 34, N^1-(2-(4-(2-(Didodecylamino)ethyl)piperazin-1-yl)ethyl)-N^1,N^2,N^2-tri((9Z,12Z)-octadeca-9,12-dien-1-yl)ethane-1,2-diamine], the PDI under setting [2] amounted to 0.077.

`CCCCCCCCCCCCN(CCO)CCN(CCCCCC(=O)OCCCCC)CCCCCC(=O)OCCCCC` [Compound 20-4, Dipentyl 6,6′-((2-(dodecyl(2-hydroxyethyl)amino)ethyl)azanediyl)dihexanoate] yielded a PDI (Table 20-1) of 0.160.

Under “Table 20-1”, `CCCCCCCCCCCCN(CCO)CCN(CCCCCCCCCCCC)CCCCCC(=O)OCCCCC` [Compound 20-2, Pentyl 6-(dodecyl(2-(dodecyl(2-hydroxyethyl)amino)ethyl)amino)hexanoate] yielded a PDI of 0.130.

On to `CCCCCCCCCCCCCCN(CCCCCCCCCCCCCC)CCN(CCCCCCCCCCCCCC)CCN1CCN(CCN(CCCCCCCCC)CCCCCCCCC)CC1` [Compound 30, N^1-(2-(4-(2-(Dinonylamino)ethyl)piperazin-1-yl)ethyl)-N^1,N^2,N^2-tritetradecylethane-1,2-diamine], for which, under setting [1], the PDI is on record as 0.110. Besides, the “Size (nm)” value (Table 1, lipid:DOPE:Chol:PEG-DMG 40:20:38.5:1.5, Luc mRNA, MC3 standard formulation) is recorded as 95.0 nm.

On to `CCCCCCCCCCCCN(CCCCCCCCCCCC)CCN1CCN(CCN(CCCCCC)CCN(CCCCCC)CCCCCC)CC1` [Compound 17, N^1-(2-(4-(2-(Didodecylamino)ethyl)piperazin-1-yl)ethyl)-N^1,N^2,N^2-trihexylethane-1,2-diamine], for which, under setting [1], the PDI amounted to 0.180.
